Results published in PubChem BioAssay AID328 (DTP/NCI, 2004).
“And” between values parts separate entries of the source, which are not always exact repeats. Identical values can stand only once. Toxic doses and inconclusive results are not listed.

System: BDF1 mice, P388 leukemia ip, median survival T/C
Test: NCI In Vivo Anticancer Drug Screen. Data for tumor model P388 Leukemia (intraperitoneal) in B6D2F1 (BDF1) mice
Settings: endpoint: median survival time, higher = longer survival
Procedure, shortened: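 Transplantable tumour in mice; compound vs vehicle dosing; survival scored; ratio of treated to control reported.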

[1] = dose: 50.0 mg/kg/injection, schedule: Q01DX009 (ip), vehicle: saline with Tween-80
[2] = dose: 6.25 mg/kg/injection, schedule: Q01DX009 (ip), vehicle: water
[3] = dose: 12.5 mg/kg/injection, schedule: Q01DX009 (ip), vehicle: water
[4] = dose: 25.0 mg/kg/injection, schedule: Q01DX009 (ip), vehicle: water
[5] = dose: 50.0 mg/kg/injection, schedule: Q04DX003 (ip), vehicle: water
[6] = dose: 100.0 mg/kg/injection, schedule: Q01DX009 (ip), vehicle: saline with Tween-80
[7] = dose: 200.0 mg/kg/injection, schedule: Q01DX009 (ip), vehicle: saline with Tween-80

With `OCC(O)C(O)C(O)c1cnn(-c2ccccc2)n1` (stereo not drawn) the T/C (dose: 75.0 mg/kg/injection, schedule: Q01DX009 (ip), vehicle: saline with Tween-80) was 96 % of control, the T/C (dose: 150.0 mg/kg/injection, schedule: Q01DX009 (ip), vehicle: saline with Tween-80) was 89 % of control and the T/C (dose: 300.0 mg/kg/injection, schedule: Q01DX009 (ip), vehicle: saline with Tween-80) was 96 % of control.
With `CO[C@H]1/C=C/O[C@@]2(C)Oc3c(C)c(O)c4c(O)c(c(/C=N/N5CCN(C)CC5)c(O)c4c3C2=O)NC(=O)/C(C)=C\C=C\[C@H](C)[C@H](O)[C@@H](C)[C@@H](O)[C@@H](C)[C@H](OC(C)=O)[C@@H]1C` the T/C (dose: 50.0 mg/kg/injection, schedule: Q01DX010 (ip), vehicle: saline) was 109 % of control, the T/C (dose: 100.0 mg/kg/injection, schedule: Q01DX010 (ip), vehicle: saline) was 114 % of control and the T/C (dose: 200.0 mg/kg/injection, schedule: Q01DX010 (ip), vehicle: saline) was 109 % of control. For the same molecule, the T/C (dose: 400.0 mg/kg/injection, schedule: Q01DX010 (ip), vehicle: saline) was 109 % of control.
In the case of `O=C1N(Br)C(=O)C(c2ccc(Cl)cc2)(c2ccc(Cl)cc2)N1Br`, the T/C (dose: 12.5 mg/kg/injection, schedule: Q01DX009 (ip), vehicle: saline with Tween-80) is reported as 113 % of control, the T/C (dose: 45.0 mg/kg/injection, schedule: Q04DX003 (ip), vehicle: Klucel (hydroxypropylcellulose) (HPC)) is reported as 90 % of control and the T/C [1] is reported as 172 % of control. For the same molecule, the T/C (dose: 65.0 mg/kg/injection, schedule: Q04DX003 (ip), vehicle: Klucel (hydroxypropylcellulose) (HPC)) was 95 % of control, the T/C (dose: 100.0 mg/kg/injection, schedule: Q04DX003 (ip), vehicle: alcohol) was 150 % of control and the T/C (dose: 100.0 mg/kg/injection, schedule: Q04DX003 (ip), vehicle: saline sonified) was 115 % of control. The T/C (dose: 130.0 mg/kg/injection, schedule: Q01DX009 (ip), vehicle: Klucel (hydroxypropylcellulose) (HPC)) was 156 % of control, the T/C (dose: 132.0 mg/kg/injection, schedule: Q01DX009 (ip), vehicle: Klucel (hydroxypropylcellulose) (HPC)) was 95 % of control and the T/C (dose: 132.0 mg/kg/injection, schedule: Q04DX003 (ip), vehicle: Klucel (hydroxypropylcellulose) (HPC)) was 177 % of control. The T/C (dose: 132.0 mg/kg/injection, schedule: Q04DX003 (ip), vehicle: saline) was 165 % of control, the T/C (dose: 200.0 mg/kg/injection, schedule: Q01DX003 (ip), vehicle: Klucel (hydroxypropylcellulose) (HPC)) was 154 % of control and the T/C (dose: 200.0 mg/kg/injection, schedule: Q01DX009 (ip), vehicle: Klucel (hydroxypropylcellulose) (HPC)) was 175 % of control. For the same molecule, the T/C (dose: 200.0 mg/kg/injection, schedule: Q04DX003 (ip), vehicle: Klucel (hydroxypropylcellulose) (HPC)) was 154 % of control, the T/C (dose: 200.0 mg/kg/injection, schedule: Q04DX003 (ip), vehicle: alcohol) was 185 % of control and the T/C (dose: 200.0 mg/kg/injection, schedule: Q04DX003 (ip), vehicle: saline sonified) was 160 % of control. For the same molecule, the T/C (dose: 300.0 mg/kg/injection, schedule: Q04DX003 (ip), vehicle: saline) was 150 % of control and the T/C (dose: 400.0 mg/kg/injection, schedule: Q04DX003 (ip), vehicle: alcohol) was 150 % of control.
With `OCC(I)C(CO)[n+]1ccccc1` (stereo not drawn) the T/C (dose: 12.5 mg/kg/injection, schedule: Q01DX009 (ip), vehicle: saline) was 107 % of control, the T/C (dose: 12.5 mg/kg/injection, schedule: Q04DX003 (ip), vehicle: saline) was 88 % of control and the T/C (dose: 25.0 mg/kg/injection, schedule: Q01DX009 (ip), vehicle: saline) was 107 % of control. For the same molecule, the T/C (dose: 25.0 mg/kg/injection, schedule: Q04DX003 (ip), vehicle: saline) was 103 % of control and the T/C (dose: 50.0 mg/kg/injection, schedule: Q04DX003 (ip), vehicle: saline) was 100 % of control.
`O=Cc1ccc(/C=C2\NC(=O)NC2=O)cc1` was tested, and the T/C (dose: 3.12 mg/kg/injection, schedule: Q01DX009 (ip), vehicle: water) was 89 % of control, the T/C (dose: 6.25 mg/kg/injection, schedule: Q01DX009 (ip), vehicle: Klucel (hydroxypropylcellulose) (HPC)) was 100 % of control and the T/C [2] was 106 % of control. For the same molecule, the T/C (dose: 12.5 mg/kg/injection, schedule: Q01DX009 (ip), vehicle: Klucel (hydroxypropylcellulose) (HPC)) was 95 % of control, the T/C [3] was 120 % of control and the T/C (dose: 25.0 mg/kg/injection, schedule: Q01DX009 (ip), vehicle: Klucel (hydroxypropylcellulose) (HPC)) was 92 % of control. For the same molecule, the T/C [4] was 121 % of control, the T/C (dose: 50.0 mg/kg/injection, schedule: Q01DX009 (ip), vehicle: Klucel (hydroxypropylcellulose) (HPC)) was 92 % of control and the T/C [5] was 103 % of control. The T/C (dose: 100.0 mg/kg/injection, schedule: Q04DX003 (ip), vehicle: water) was 87 % of control and the T/C (dose: 200.0 mg/kg/injection, schedule: Q04DX003 (ip), vehicle: water) was 119 % of control.
With `COc1cc2c(c(OC)c1OC)-c1ccc(OC)c(=O)cc1[C@@H](NC(=O)CF)CC2` the T/C (dose: 0.09 mg/kg/injection, schedule: Q01DX009 (ip), vehicle: saline with Tween-80) was 187 % of control, the T/C (dose: 0.09 mg/kg/injection, schedule: Q01DX009 (ip), vehicle: saline) was 188 % of control and the T/C (dose: 0.18 mg/kg/injection, schedule: Q01DX009 (ip), vehicle: saline with Tween-80) was 232 % of control. For the same molecule, the T/C (dose: 0.18 mg/kg/injection, schedule: Q01DX009 (ip), vehicle: saline) was 257 % of control, the T/C (dose: 0.37 mg/kg/injection, schedule: Q01DX009 (ip), vehicle: saline) was 103 % of control and the T/C (dose: 46.2 micrograms/kg/injection, schedule: Q01DX009 (ip), vehicle: saline with Tween-80) was 158 % of control. The T/C (dose: 185.0 micrograms/kg/injection, schedule: Q01DX009 (ip), vehicle: saline with Tween-80) was 89 % of control and the T/C (dose: 370.0 micrograms/kg/injection, schedule: Q01DX009 (ip), vehicle: saline with Tween-80) was 247 % of control.
For `O=S(=O)(O)O.[NH-]CC(N)=O.[NH-]CC(N)=O.[Ni+2]`, the T/C [2] was 115 % of control, the T/C [3] was 110 % of control and the T/C (dose: 12.5 mg/kg/injection, schedule: Q04DX003 (ip), vehicle: water) was 100 % of control. The T/C (dose: 25.0 mg/kg/injection, schedule: Q04DX003 (ip), vehicle: water) was 90 % of control and the T/C [5] was 109 % of control.
`O=C(CCC(=O)c1cccc([N+](=O)[O-])c1)NNc1ccc([N+](=O)[O-])cc1[N+](=O)[O-]` was tested, and the T/C [6] was 104 % of control, the T/C [7] was 90 % of control and the T/C (dose: 400.0 mg/kg/injection, schedule: Q01DX009 (ip), vehicle: saline with Tween-80) was 95 % of control.
In the case of `C=C1CCCCC1O` (stereo not drawn), the T/C [1] is reported as 101 % of control, the T/C [6] is reported as 95 % of control and the T/C [7] is reported as 101 % of control.
`COC(=O)C(Cc1cnc2nc(N)nc(N)c2n1)C(=O)OC` was tested, and the T/C (dose: 1.56 mg/kg/injection, schedule: Q01DX009 (ip), vehicle: water) was 100 % of control, the T/C (dose: 3.13 mg/kg/injection, schedule: Q01DX009 (ip), vehicle: water) was 90 % of control and the T/C [2] was 100 % of control. For the same molecule, the T/C [3] was 100 % of control and the T/C [4] was 111 % of control.
With `O=C(O)C1CC(c2ccccc2)OC1=O` (stereo not drawn) the T/C (dose: 100.0 mg/kg/injection, schedule: Q01DX009 (ip), vehicle: gum acacia) was 92 % of control, the T/C (dose: 100.0 mg/kg/injection, schedule: Q04DX003 (ip), vehicle: gum acacia) was 100 % of control and the T/C (dose: 200.0 mg/kg/injection, schedule: Q01DX009 (ip), vehicle: gum acacia) was 92 % of control. For the same molecule, the T/C (dose: 200.0 mg/kg/injection, schedule: Q04DX003 (ip), vehicle: gum acacia) was 104 % of control and the T/C (dose: 400.0 mg/kg/injection, schedule: Q04DX003 (ip), vehicle: gum acacia) was 108 % of control.
`CCOC(=O)CNC(=O)CCCCSc1ncnc2nc[nH]c12` was tested, and the T/C (dose: 20.0 mg/kg/injection, schedule: Q01DX009 (ip), vehicle: Klucel (hydroxypropylcellulose) (HPC)) was 97 % of control and 98 % of control, the T/C (dose: 40.0 mg/kg/injection, schedule: Q01DX009 (ip), vehicle: Klucel (hydroxypropylcellulose) (HPC)) was 91 % of control and the T/C (dose: 80.0 mg/kg/injection, schedule: Q01DX009 (ip), vehicle: Klucel (hydroxypropylcellulose) (HPC)) was 101 % of control and 111 % of control. The T/C (dose: 160.0 mg/kg/injection, schedule: Q01DX009 (ip), vehicle: Klucel (hydroxypropylcellulose) (HPC)) was 89 % of control and 100 % of control, the T/C (dose: 320.0 mg/kg/injection, schedule: Q01DX009 (ip), vehicle: Klucel (hydroxypropylcellulose) (HPC)) was 87 % of control and 89 % of control and the T/C (dose: 640.0 mg/kg/injection, schedule: Q01DX009 (ip), vehicle: Klucel (hydroxypropylcellulose) (HPC)) was 86 % of control.
`Cc1ccc2c(c1)nc1c3ccccc3nnn21` was tested, and the T/C (dose: 50.0 mg/kg/injection, schedule: Q04DX003 (ip), vehicle: saline with Tween-80) was 112 % of control, the T/C (dose: 100.0 mg/kg/injection, schedule: Q04DX003 (ip), vehicle: saline with Tween-80) was 104 % of control and the T/C (dose: 200.0 mg/kg/injection, schedule: Q04DX003 (ip), vehicle: saline with Tween-80) was 107 % of control.
